Experiment: xn = mol fraction of the nth substance listed
Settings: Fluid (supercritical or subcritical phases), vibrating tube

CCCCCO [pentan-1-ol] + O=C=O
Settings	mass density [kg/m3]
362.59 K, 3010 kPa, x2 = 0	762.29
362.59 K, 3998 kPa, x2 = 0	763.28
362.59 K, 5006 kPa, x2 = 0	764.25
362.59 K, 6013 kPa, x2 = 0	765.23
362.59 K, 7014 kPa, x2 = 0	766.21
362.59 K, 8007 kPa, x2 = 0	767.16
362.59 K, 9020 kPa, x2 = 0	768.1
362.59 K, 10006 kPa, x2 = 0	769.02
362.59 K, 10991 kPa, x2 = 0	769.93
362.59 K, 12025 kPa, x2 = 0	770.87
362.59 K, 13008 kPa, x2 = 0	771.76
362.59 K, 13998 kPa, x2 = 0	772.62
362.59 K, 15017 kPa, x2 = 0	773.51
362.59 K, 16000 kPa, x2 = 0	774.37
362.59 K, 17013 kPa, x2 = 0	775.24
362.59 K, 18032 kPa, x2 = 0	776.11
362.59 K, 19003 kPa, x2 = 0	776.9
362.59 K, 20030 kPa, x2 = 0	777.77
362.59 K, 20987 kPa, x2 = 0	778.55
362.59 K, 22033 kPa, x2 = 0	779.4
362.59 K, 23000 kPa, x2 = 0	780.2
362.59 K, 24031 kPa, x2 = 0	781.02
362.59 K, 25026 kPa, x2 = 0	781.82
362.64 K, 10025 kPa, x2 = 0.3624	777.81
362.64 K, 11003 kPa, x2 = 0.3624	779.19
362.64 K, 12003 kPa, x2 = 0.3624	780.55
362.64 K, 12022 kPa, x2 = 0.4651	773.96
362.64 K, 13017 kPa, x2 = 0.3624	781.9
362.64 K, 13060 kPa, x2 = 0.4651	776.14
362.64 K, 14013 kPa, x2 = 0.3624	783.21
362.64 K, 14031 kPa, x2 = 0.4651	778.14
362.64 K, 15047 kPa, x2 = 0.4651	780.2
362.64 K, 15050 kPa, x2 = 0.3624	784.56
362.64 K, 16009 kPa, x2 = 0.3624	785.79
362.64 K, 16038 kPa, x2 = 0.4651	782.15
362.64 K, 17020 kPa, x2 = 0.4651	784.05
362.64 K, 17038 kPa, x2 = 0.3624	787.08
362.64 K, 17996 kPa, x2 = 0.3624	788.26
362.64 K, 18020 kPa, x2 = 0.4651	785.95
362.64 K, 19025 kPa, x2 = 0.3624	789.49
362.64 K, 19043 kPa, x2 = 0.4651	787.85
362.64 K, 20005 kPa, x2 = 0.3624	790.66
362.64 K, 20038 kPa, x2 = 0.4651	789.76
362.64 K, 21006 kPa, x2 = 0.3624	791.85
362.64 K, 21016 kPa, x2 = 0.4651	791.43
362.64 K, 22040 kPa, x2 = 0.3624	793.05
362.64 K, 22046 kPa, x2 = 0.4651	793.2
362.64 K, 22994 kPa, x2 = 0.3624	794.14
362.64 K, 23026 kPa, x2 = 0.4651	794.9
362.64 K, 24043 kPa, x2 = 0.3624	795.34
362.64 K, 24056 kPa, x2 = 0.4651	796.64
362.64 K, 25004 kPa, x2 = 0.3624	796.42
362.66 K, 3020 kPa, x2 = 0.0816	763.81
362.66 K, 3996 kPa, x2 = 0.0816	764.91
362.66 K, 4993 kPa, x2 = 0.0816	765.97
362.66 K, 6014 kPa, x2 = 0.0816	767.08
362.66 K, 7003 kPa, x2 = 0.0816	768.13
362.66 K, 8000 kPa, x2 = 0.0816	769.18
362.66 K, 9015 kPa, x2 = 0.0816	770.22
362.66 K, 10003 kPa, x2 = 0.0816	771.21
362.66 K, 11015 kPa, x2 = 0.0816	772.24
362.66 K, 12001 kPa, x2 = 0.0816	773.21
362.66 K, 13063 kPa, x2 = 0.0816	774.24
362.66 K, 14005 kPa, x2 = 0.0816	775.13
362.66 K, 15014 kPa, x2 = 0.0816	776.09
362.66 K, 16024 kPa, x2 = 0.9216	573.29
362.66 K, 16035 kPa, x2 = 0.0816	777.05
362.66 K, 17029 kPa, x2 = 0.0816	777.98
362.66 K, 17029 kPa, x2 = 0.9216	602.35
362.66 K, 18005 kPa, x2 = 0.0816	778.87
362.66 K, 18035 kPa, x2 = 0.9216	625.49
362.66 K, 19005 kPa, x2 = 0.9216	644.28
362.66 K, 19061 kPa, x2 = 0.0816	779.82
362.66 K, 19993 kPa, x2 = 0.0816	780.66
362.66 K, 20065 kPa, x2 = 0.9216	661.85
362.66 K, 21022 kPa, x2 = 0.0816	781.57
362.66 K, 21055 kPa, x2 = 0.9216	676.21
362.66 K, 22016 kPa, x2 = 0.9216	688.72
362.66 K, 22027 kPa, x2 = 0.0816	782.43
362.66 K, 23003 kPa, x2 = 0.0816	783.28
362.66 K, 23071 kPa, x2 = 0.9216	701.08
362.66 K, 23748 kPa, x2 = 0.9216	708.43
362.66 K, 23994 kPa, x2 = 0.0816	784.14
362.66 K, 25028 kPa, x2 = 0.0816	785.05
362.67 K, 16036 kPa, x2 = 0.7274	743.56
362.67 K, 17030 kPa, x2 = 0.7274	749.82
362.67 K, 18000 kPa, x2 = 0.7274	755.36
362.67 K, 19028 kPa, x2 = 0.7274	760.67
362.67 K, 20033 kPa, x2 = 0.7274	765.6
362.67 K, 21074 kPa, x2 = 0.7274	770.32
362.67 K, 22015 kPa, x2 = 0.7274	774.34
362.67 K, 23077 kPa, x2 = 0.7274	778.68
362.67 K, 24033 kPa, x2 = 0.7274	782.39
362.67 K, 25155 kPa, x2 = 0.7274	786.55
362.76 K, 15032 kPa, x2 = 0.6054	774.3
362.76 K, 16035 kPa, x2 = 0.6054	777.11
362.76 K, 17040 kPa, x2 = 0.6054	779.89
362.76 K, 18044 kPa, x2 = 0.6054	782.5
362.76 K, 19042 kPa, x2 = 0.6054	785.04
362.76 K, 20068 kPa, x2 = 0.6054	787.6
362.76 K, 21079 kPa, x2 = 0.6054	790.03
362.76 K, 22029 kPa, x2 = 0.6054	792.27
362.76 K, 23044 kPa, x2 = 0.6054	794.59
362.76 K, 24071 kPa, x2 = 0.6054	796.88
362.76 K, 25065 kPa, x2 = 0.6054	799.05
362.79 K, 7017 kPa, x2 = 0.1347	768.35
362.79 K, 7974 kPa, x2 = 0.1347	769.41
362.79 K, 9023 kPa, x2 = 0.1347	770.53
362.79 K, 9999 kPa, x2 = 0.1347	771.53
362.79 K, 10899 kPa, x2 = 0.1347	772.5
362.79 K, 12022 kPa, x2 = 0.1347	773.68
362.79 K, 13018 kPa, x2 = 0.1347	774.7
362.79 K, 14016 kPa, x2 = 0.1347	775.72
362.79 K, 15031 kPa, x2 = 0.1347	776.75
362.79 K, 16022 kPa, x2 = 0.1347	777.7
362.79 K, 17016 kPa, x2 = 0.1347	778.71
362.79 K, 18017 kPa, x2 = 0.1347	779.67
362.79 K, 19013 kPa, x2 = 0.1347	780.6
362.79 K, 20017 kPa, x2 = 0.1347	781.57
362.79 K, 21040 kPa, x2 = 0.1347	782.53
362.79 K, 22011 kPa, x2 = 0.1347	783.41
362.79 K, 23022 kPa, x2 = 0.1347	784.34
362.79 K, 24039 kPa, x2 = 0.1347	785.29
362.79 K, 25030 kPa, x2 = 0.1347	786.19

Source: the NIST ThermoML archive (doi:10.1016/j.jct.2007.07.005)
